Measured values as given in patent publication US20240269302A1, “NANOPARTICLE COMPRISING PEPTIDE-LIPID CONJUGATE FOR DELIVERING OLIGONUCLEOTIDE INTO TARGET CELL AND PHARMACEUTICAL COMPOSITION COMPRISING SAME” (NIBEC CO., LTD., priority 2021, published 2024).

Tested on: KRAS mRNA
Test: Reduction of KRAS mRNA by KRAS siRNA delivered into cells, quantitative real-time PCR
Format: cell-based, human
Details: H358 cells, 100 nM, 16 hours, qRT-PCR, 18S rRNA as housekeeping gene
Procedure: H358 cells were seeded at a density of 70% in a 6-well plate. After 16 hours, cell starvation was performed overnight with DMEM containing 0.5% FBS. The cells were treated with a medium containing nanoparticles comprising KRAS siRNA and a peptide-lipid conjugate at a concentration of 100 nM for 16 hours. As a control, 100 nM of siRNA mixed with Lipofectamine was used.
Quantitative real-time PCR was performed in the following manner. For mRNA quantification, total RNA was isolated using the Qiagen RNeasy kit. cDNA was synthesized using Verso cDNA kit (Thermo Scientific) using 500 ng RNA. mRNA values were measured with a 7500 Fast Real-Time PCR System (Applied Biosystems) based on SYBR Green.
18S rRNA was used as a housekeeping gene (control gene). PCR was performed using reverse-transcribed RNA and 100 ng/μL of sense and antisense primers (total volume 20 μL) were used. 40 cycles were performed and each cycle included denaturation at 95° ° C. for 15 seconds, annealing for 1 minute, and extension at 60° ° C.

siRNA alone: siRNA that inhibits the expression of KRAS (SEQ ID NO: 19 sense, SEQ ID NO: 20 antisense), without carrier (sense CAGCUAAUUCAGAAUCAUU; antisense AAUGAUUCUGAAUUAGCUG; listed as RNA, chemistry not given here)
KRAS mRNA: no effect
